Tests used:
[1] = system: adult rat cardiomyocytes; assay: Caspase-Glo 9 and 3/7 assays of H2O2 induced apoptosis; type: cell-based; conditions: 3 μM inhibitor 30 min, 100 nM HASF 30 min, 200 μM H2O2 3 hours
Protocol: FIGS. 2B and 2C are bar graphs showing relative caspase activity. Adult rat cardiomyocytes were freshly isolated and treated ±10 nM of HASF for 30 min, and then challenged with 100 μM of H2O2 for various time points. H2O2 induced apoptosis in cardiomyocytes was evidenced by the dynamic increase in the activities of the initiator Caspase 9 and effector Caspase […] at 5 h, 7 h and 9 h respectively. Y axis represent the relative amount of luminescence indicating the relative amount of active Caspase activities. ** P<0.01 and *** P<0.001. Data are presented as means±standard deviation of triplicates.
FIG. 3C is a bar graph showing fold-change in caspase activity. Serum-starved adult rat cardiomyocytes were treated with 3 μM PKC inhibitors or vehicle DMSO for 30 minutes, then 100 nM HASF recombinant protein was added for 30 minutes followed by treatment with 200 μM H2O2 for 3 hours. Apoptosis was determined by detection of Caspase-9 activity using a homogeneous luminescent assay. All samples were measured in triplicates. *P<0.05 vs. non-HASF treated cells.
FIG. 4C is a bar graph showing relative caspase activity in adult cardiomyocytes. Apoptosis as determined by detection of Caspase-9 activity on adult rat cardiomyocytes pre-treated with 178 μM PKC translocation inhibitor peptide for 10 minutes and then with 100 nM of HASF for 30 minutes. Thereafter, cells were challenged with 200 μM H2O2 for 3 hours. All samples were measured in triplicates. *P <0.05 vs. non-HASF treated cells and the experiment was repeated multiple times.
Adult rat ventricular cardiomyocytes were isolated from 6 weeks old female Sprague-Dawley rat (Harlan World Headquarters, Indianapolis, Ill., USA) hearts by enzymatic digestion and were seeded in (6-well) plates or Delta T culture dishes (Bioptechs, Inc., Pa.) pre-coated with 1 μg/cm2 of laminin (Sigma) at 5×10^4/well and cultured overnight in serum-free M199 medium (Sigma), supplemented with 2 mM of L-carnitine, 5 mM of creatine, 5 mM of taurine, 0.2% of albumin, 100 U/ml of penicillin and 100 μg/ml of streptomycin. […]

[2] = system: PKC, Raf, ERK 1/2, PDK1 phosphorylation in adult rat cardiomyocytes; assay: Western blot analysis of signaling protein phosphorylation (PKC/ERK pathway); type: cell-based; conditions: 3 μM inhibitor 30 min, then 100 nM HASF 5-10 min
Protocol: FIG. 3A is a photograph of an electrophoretic gel. HASF activates the PKC pathway. A. Western blots analysis for various signaling proteins. Serum-starved adult rat cardiomyocytes were stimulated with 100 nM HASF recombinant protein for various time courses. Cell lysate was collected and the proteins were resolved by SDS-PAGE. Insulin from bovine pancreas was used as a positive control. min: minutes of treatment.
FIG. 3B is a photograph of an immunoblot. Serum-starved adult rat cardiomyocytes were pre-treated with 3 μM PKC inhibitors BIM, Gö6976, or Gö6983 for 30 minutes, then stimulated with 100 nM HASF recombinant protein for 5-10 min and cells were harvested. Total cell lysates were used to analyze the levels of ERK1/2 phosphorylation by western blot analysis.
FIG. 4A is a photograph of an immunoblot. Western blot analysis for PKC E and PKC delta phosphorylation on total cell lysates from serum-starved adult rat cardiomyocytes stimulated with 100 nM HASF recombinant protein at 5 and 30 min. HASF b1 and b2 represent different batches of recombinant protein. PMA was used as positive control.
FIG. 4B is a photograph of an immunoblot. Western blot analysis for ERK1/2 phosphorylation on total cell lysates from adult rat cardiomyocytes pre-treated with 10 pM PKC epsilon translocation inhibitor peptide for 20 min, then 100 nM HASF recombinant protein was added for 5 min or 10 min.
FIGS. 8A-B are photographs of immunoblots. Western blot analysis for PKC a/b and PKC theta phosphorylation on total cell lysates from serum-starved adult rat cardiomyocytes stimulated with 100 nM HASF recombinant protein for the indicated times. HASF batch 1 and 2 represent different batches of recombinant protein. PMA was used as positive control.
Rabbit polyclonal antibodies for phospho-pan PKC, phospho-ERK1/2, phospho-raf, phosphor-PDK1, total Akt were obtained from Cell Signaling Tech. Rabbit polyclonal antibody for phospho-PKC epsilon, phospho-Bad, and GAPDH was obtained from Abeam. HRP-conjugated goat anti-rabbit secondary antibody was obtained from Cell Signaling Tech.

SMILES: CN(C)CCCn1cc(C2=C(c3c[nH]c4ccccc34)C(=O)NC2=O)c2ccccc21.Cl [BIM, Bisindolylmalemide Hydrochloride, reference compound]
- effect of PKC inhibitor on protective effects of HASF (Caspase-9 activity) [1]: abolished the protective effects
- effect of PKC inhibitor on HASF-mediated ERK1/2 phosphorylation [2]: abolished

Source: patent US20120172306A1, “Use of HASF as a Protective Agent Against Ischemic Tissue Damage” (Duke University, priority 2009, published 2012)
